Several values for one entry are separate records, joined by “and”; a condition that tells them apart may be missing. Equal values may be shown once.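 A five-concentration, 48-hour dose response in 96-well plates underlies each endpoint, interpolated linearly between surrounding concentrations. GI50: concentration for 50% inhibition of growth. TGI: concentration producing complete growth inhibition.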 Where a SMILES comes first, the peptide text is derived from it. The star is where a group is joined. Cbz = O=C(OCc1ccccc1)*
Legend:
Test in all cases: NCI anticancer screen, dose series, 48 h
CAKI-1 renal = system: CAKI-1 renal
M14 melanoma = system: M14 melanoma
MDA-MB-231 breast = system: MDA-MB-231 breast
NCI-H460 lung = system: NCI-H460 lung
OVCAR-8 ovarian = system: OVCAR-8 ovarian
RPMI-8226 leukemia = system: RPMI-8226 leukemia
RXF 393 renal = system: RXF 393 renal
SF-539 CNS = system: SF-539 CNS
T-47D breast = system: T-47D breast
TK-10 renal = system: TK-10 renal
CCRF-CEM leukemia = system: CCRF-CEM leukemia
HS 578T breast = system: HS 578T breast
MDA-MB-435 = system: MDA-MB-435

Structure (SMILES) | TGI (CAKI-1 renal) | TGI (M14 melanoma) | TGI (MDA-MB-231 breast) | TGI (NCI-H460 lung) | TGI (OVCAR-8 ovarian) | TGI (RPMI-8226 leukemia) | TGI (RXF 393 renal) | TGI (SF-539 CNS) | TGI (T-47D breast) | TGI (TK-10 renal) | TGI (CCRF-CEM leukemia) | TGI (HS 578T breast) | TGI (MDA-MB-435) | GI50 (CAKI-1 renal) | GI50 (OVCAR-8 ovarian) | GI50 (TK-10 renal)
O=S1c2ccccc2SCSc2ccccc21 | > 100 µM | > 100 µM | > 100 µM | > 100 µM | > 100 µM | 70.1 µM | > 100 µM | > 100 µM | > 100 µM | > 100 µM | – | – | – | – | – | –
CC(=O)c1cccc(NC(=O)C(=O)C(C(=O)c2ccccc2F)C2OC(=O)c3ccccc32)c1 (stereo not drawn) | > 100 µM | > 100 µM | – | > 100 µM | > 100 µM | 87.9 µM | 70 µM | – | – | > 100 µM | 49.6 µM | – | – | – | – | –
CCOC(=O)C(CC(=O)OC)NC(=O)C(CC(=O)OC)NC(=O)C(CC(=O)OC)NC(=O)C(CC(=O)OC)NC(=O)OCc1ccccc1 (stereo not drawn) (Cbz-D(OMe)D(OMe)D(OMe)D(OMe)-OEt; configuration not given here) | – | > 100 µM | > 100 µM | > 100 µM | > 100 µM | > 100 µM | > 100 µM | – | > 100 µM | > 100 µM | – | > 100 µM | – | – | – | –
O=C1c2ccccc2-c2c1c(-c1ccccc1)c1n2C2(C(=O)c3ccccc3C2=O)C2C(=O)N(c3ccccc3)C(=O)C12 (stereo not drawn) | > 100 µM | > 100 µM | – | 36.9 µM | > 100 µM | – | 41.5 µM | 37.5 µM | 65.7 µM | > 100 µM | 60 µM | 63.7 µM | 50.3 µM | – | – | –
O=C1CCc2cc3c(cc21)CC1(Cc2cc4c(cc2C1)CCCC4)C3 | – | > 100 µM | > 100 µM | > 100 µM | > 100 µM | > 100 µM | > 100 µM | > 100 µM | > 100 µM | > 100 µM | > 100 µM | 90.2 µM | 51 µM | – | – | –
FC(F)(F)C1(C(F)(F)F)O[SiH]2(OC(C(F)(F)F)(C(F)(F)F)c3ccccc32)c2ccccc21 | 87.1 µM | 29.4 µM | – | 25.5 µM | 83.9 µM | 97.4 µM | 31.2 µM | 25.4 µM | – | 45.5 µM | – | – | – | – | – | –
C/C(=N\NC(=S)NNC(=S)N(C)c1ccccc1)c1ccccn1 | 8.39 µM | 2.56 µM | > 100 µM | 29.5 µM | > 100 µM | > 30.4 µM | 17 µM | 11.1 µM | 72.8 µM | > 100 µM | – | > 100 µM | 25.6 µM | – | – | –
CCOC(=O)/C=C/c1c[nH]c(C(=O)OCC)c1 | > 100 µM | – | – | > 100 µM | > 100 µM | > 100 µM | > 100 µM | > 100 µM | – | – | > 100 µM | – | – | – | – | –
COc1cc(C2c3cc4c(cc3[C@@H](NCCCN(C)C)[C@H]3COC(=O)C23)OCO4)cc(OC)c1O (stereo partly drawn) | 0.351 µM and 0.952 µM | – | – | 0.632 µM and 0.336 µM | 1.2 µM and 5.09 µM | > 37.5 µM and 5.49 µM | – | 1.05 µM and 0.981 µM | – | 5.17 µM and 7.61 µM | – | – | – | 0.0599 µM and 0.227 µM | 0.333 µM and 1.26 µM | 0.992 µM and 2.86 µM
O=C(/C=C(\O)c1ccc(Cl)cc1)C(=O)NN=C(c1ccccc1)c1ccccc1 | > 100 µM | > 100 µM | 65.1 µM | 31.3 µM | 97.6 µM | – | > 100 µM | > 100 µM | > 100 µM | > 100 µM | 98.5 µM | 85.3 µM | > 100 µM | – | – | –

Reference: PubChem BioAssay (NCI)
